Read-outs that look alike come from different tables or passages of the source.
What was measured:
Experiment in all cases: microbe, parasite or virus in culture
Type in all cases: cell-based, Hepatitis C virus (HCV)
HCV replicon 1B = details: Replicon Assay B
Procedure: (§1) In an alternate assay (“Replicon Assay B”), 1000 cells were seeded per well in a 384-well collagen coated black plate from Greiner bio-one (Cat #781946) in 5% FBS. Inhibitors of this invention were added at 24 h post-seeding, and the plates were incubated for 3 days. Cells were subsequently lysed with Qiagen lysis buffer (Cat #1062731) to extract the RNA. HCV replicon RNA level was measured by real-time PCR using the RNA-to-CT kit from Applied Biosystem (Cat #4392656) and genotype-specific primers and probes. The amplicon was located within NS5B. […] (SEQ. ID NO. 2); the probe sequence was FAM-labeled […] (SEQ. ID NO. 3).
(§2) The real-time RT-PCR reactions were run on ABI PRISM 7900HT or Viia7 Sequence Detection System using the following program: 48° C. for 30 minutes, 95° C. for 10 minutes, 40 cycles of 95° C. for 15 sec, 60° C. for 1 minutes.
(§3) Data for replicons 1A, 1AY93H and 2B were obtained using Replicon Assay A and data for replicons 1AQ30D and 1B were obtained using Replicon Assay B.

HCV replicon 1AY93H = details: Replicon Assay A
Outline: (§4)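 Cells seeded 2000/well + compound; 0.5% DMSO, 5% FBS; harvest day 3, lyse. Multiplex TaqMan RT-PCR for replicon (Neo probe) and cyclophilin RNA; amounts from Ct vs log(ng) linear regression of replicon total RNA standards.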

HCV replicon 1A = details: Replicon Assay A
Outline: as §4

HCV replicon 2B = details: Replicon Assay A
Outline: as §4

HCV replicon 1AQ30D = details: Hepatitis C virus, read-out: 1A Q30D IC50 (nM), replicon 1AQ30D; Replicon Assay B
Procedure: as §1, §2, §3

[1] = read-out: 1A Y93H IC50, HCV replicon 1A Y93H
[2] = read-out: 2B IC50, HCV replicon 2B
[3] = read-out: 1A Y93H IC50, replicon 1AY93H
[4] = Hepatitis C virus, HCV replicon 1B
[5] = Hepatitis C virus, read-out: 2B IC50 (nM), replicon 2B
[6] = HCV replicon 1A Y93H, read-out: 1A Y93H IC50
[7] = HCV replicon 2B, read-out: 2B IC50

SMILES	IC50 (HCV replicon 1AY93H; [1])	IC50 (HCV replicon 1A; HCV replicon 1A)	IC50 (HCV replicon 2B; [2])	IC50 (HCV replicon 1B; Hepatitis C virus, replicon 1B)	IC50 (HCV replicon 1AY93H; [3])	IC50 (HCV replicon 2B; read-out: 2B IC50, replicon 2B)	other results
COC(=O)N[C@H](C(=O)N1C2CC2C[C@H]1c1ncc(-c2cc(F)c3c(c2)OC(c2ccc(C4CC4)s2)n2c-3cc3cc(-c4cnc([C@@H]5CCCN5C(=O)[C@@H](NC(=O)OC)C5C[C@@H](C)O[C@@H](C)C5)[nH]4)ccc32)[nH]1)C(C)C (single isomer, unassigned) [Compound 558]	0.362 nM	0.0535 nM	1.22 nM	–	–	–	IC50 (HCV replicon 1B; HCV replicon 1B): 0.0358 nM
CCOC(C)[C@H](NC(=O)OC)C(=O)N1CCC[C@H]1c1ncc(-c2cc(F)c3c(c2)OC(c2cc(C)c(C)s2)n2c-3cc3cc(-c4cnc([C@@H]5CCCN5C(=O)[C@@H](NC(=O)OC)C(C)C)[nH]4)ccc32)[nH]1 (single isomer, unassigned) [Compound 79]	–	–	–	0.0034 nM	0.14 nM	0.32 nM	IC50 (HCV replicon 1A; Hepatitis C virus, replicon 1A): 0.0021 nM
COC(=O)N[C@H](C(=O)N1CCC[C@H]1c1ncc(-c2ccc3c(c2)OC(c2ccc(C4CC4)s2)n2c-3c(F)c3cc(-c4cnc([C@@H]5CCCN5C(=O)[C@@H](NC(=O)OC)C(C)C)[nH]4)ccc32)[nH]1)C(C)C (single isomer, unassigned) [Compound 606]	0.161 nM	0.0026 nM	0.286 nM	–	–	–	IC50 (HCV replicon 1B; HCV replicon 1B): 0.0032 nM
COC(=O)N[C@H](C(=O)N1CCC[C@H]1c1ncc(-c2ccc3c(c2)OC(c2ccc(C4CC4)s2)n2c-3cc3cc(-c4cnc([C@@H]5CCCN5C(=O)[C@@H](NC(=O)OC)C(C)C)[nH]4)ccc32)[nH]1)C(C)C (single isomer, unassigned) [Compound 704]	0.45 nM	0.0029 nM	1.07 nM	–	–	–	IC50 (HCV replicon 1B; [4]): 0.0029 nM
COC(=O)NC(C(=O)N1CCC[C@H]1c1ncc(-c2ccc3c(c2)cc2n3C(c3cc4c(s3)CCC4)Oc3cc(-c4cnc([C@@H]5CCCN5C(=O)[C@@H](NC(=O)OC)C(C)C)[nH]4)cc(C)c3-2)[nH]1)C1CCOC(C)(C)C1 (single isomer, unassigned) [Compound 852]	1.32 nM	–	0.058 nM	–	–	–	IC50 (HCV replicon 1B; [4]): 0.0025 nM; IC50 (HCV replicon 1A; Hepatitis C virus, HCV replicon 1A): > 0.003 nM
COC(=O)NC(C(=O)N1CCC[C@H]1c1ncc(-c2ccc3c(c2)cc2n3C(c3cc(C)c(C)s3)Oc3cc(-c4cnc([C@@H]5CCCN5C(=O)[C@@H](NC(=O)OC)C5CCOCC5)[nH]4)cc(F)c3-2)[nH]1)C(C)(C)F (single isomer, unassigned) [Compound 130]	–	–	–	0.0036 nM	0.24 nM	0.24 nM	IC50 (HCV replicon 1A; replicon 1A): 0.0017 nM
COC(=O)NC(C(=O)N1CCC[C@H]1c1ncc(-c2ccc3c(c2)cc2n3C(c3ccc(C4CC4)s3)Oc3cc(-c4cnc([C@@H]5C[C@@H](F)CN5C(=O)[C@@H](NC(=O)OC)C(C)C)[nH]4)cc(F)c3-2)[nH]1)C(C)(C)F (single isomer, unassigned) [Compound 114]	–	–	–	0.0024 nM	0.002 nM	0.2 nM	IC50 (HCV replicon 1A; replicon 1A): 0.0013 nM
CCc1ccc(C2Oc3cc(-c4c[nH]c([C@@H]5CCCN5C(=O)[C@@H](NC(=O)OC)C(C)C)n4)ccc3-c3cc4c(F)c(-c5c[nH]c([C@@H]6CCCN6C(=O)C(NC(=O)OC)C6C[C@@H](C)O[C@@H](C)C6)n5)ccc4n32)s1 (single isomer, unassigned) [Compound 361]	–	–	–	0.0035 nM	0.138 nM	0.0389 nM	IC50 (HCV replicon 1A; replicon 1A): 0.0036 nM
COC(=O)N[C@H](C(=O)N1C[C@H](F)C[C@H]1c1cnc(-c2ccc3c(c2)cc2n3C(c3cc4ccccc4s3)Oc3cc(-c4cnc([C@@H]5C[C@@H](F)CN5C(=O)[C@@H](NC(=O)OC)C(C)C)[nH]4)ccc3-2)[nH]1)C(C)C (single isomer, unassigned) [Compound 805]	0.01 nM	0.01 nM	–	–	–	–	IC50 (HCV replicon 1B; [4]): 0.005 nM; IC50 (HCV replicon 2B; Hepatitis C virus, read-out: 2B IC50, HCV replicon 2B): 21.5 nM
COC(=O)NC(C(=O)N1CCC[C@H]1c1ncc(-c2ccc3c(c2)cc2n3C(c3ccc(CC4CC4)s3)Oc3cc(-c4cnc([C@@H]5CCCN5C(=O)[C@@H](NC(=O)OC)C(C)C)[nH]4)cc(F)c3-2)[nH]1)C1CCOC(C)(C)C1 (single isomer, unassigned) [Compound 407]	0.258 nM	0.0017 nM	0.26 nM	–	–	–	IC50 (HCV replicon 1B; [4]): 0.0019 nM
COC(=O)NC(C(=O)N1CCC[C@H]1c1ncc(-c2ccc3c(c2)cc2n3C(c3ccc(CC4CC4)s3)Oc3cc(-c4cnc([C@@H]5CCCN5C(=O)[C@@H](NC(=O)OC)C(C)C)[nH]4)cc(F)c3-2)[nH]1)C1CCOC(C)(C)C1 (single isomer, unassigned) [Compound 409]	0.746 nM	0.0017 nM	0.181 nM	–	–	–	IC50 (HCV replicon 1B; HCV replicon 1B): 0.0025 nM
COC(=O)N[C@H](C(=O)N1C[C@H](F)C[C@H]1c1cnc(-c2ccc3c(c2)cc2n3C(c3cc4ccccc4s3)Oc3cc(-c4cnc([C@@H]5C[C@@H](F)CN5C(=O)[C@@H](NC(=O)OC)C(C)C)[nH]4)ccc3-2)[nH]1)C(C)C (single isomer, unassigned) [Compound 806]	0.023 nM	0.041 nM	42.9 nM	–	–	–	IC50 (HCV replicon 1B; HCV replicon 1B): 0.009 nM
COC(=O)N[C@H](C(=O)N1CCC[C@H]1c1ncc(-c2cc(F)c3c(c2)OC(c2ccc(F)s2)n2c-3cc3cc(-c4cnc([C@@H]5CCCN5C(=O)[C@@H](NC(=O)OC)C(C)C)[nH]4)ccc32)[nH]1)C(C)C (single isomer, unassigned) [Compound 13]	–	–	–	0.0023 nM	2.1 nM	3.79 nM	IC50 (HCV replicon 1A; Hepatitis C virus, replicon 1A): 0.0019 nM
COC(=O)N[C@H](C(=O)N1CCC[C@H]1c1ncc(-c2cc(F)c3c(c2)OC(c2cc4c(s2)CCC4)n2c-3cc3cc(-c4cnc([C@@H]5CCCN5C(=O)[C@@H](NC(=O)OC)C(C)C)[nH]4)ccc32)[nH]1)C(C)C (single isomer, unassigned) [Compound 27]	–	–	–	0.0014 nM	–	–	IC50 (HCV replicon 1AY93H; Hepatitis C virus, read-out: 1A Y93H IC50 (nM), replicon 1AY93H): 0.65 nM; IC50 (HCV replicon 1A; Hepatitis C virus, replicon 1A): 0.0016 nM; IC50 (HCV replicon 2B; [5]): 1.49 nM
COC(=O)NC(C(=O)N1CCC[C@H]1c1ncc(-c2cc(F)c3c(c2)OC(c2ccc(C4CC4)s2)n2c-3cc3cc(-c4cnc([C@@H]5CCCN5C(=O)[C@@H](NC(=O)OC)C5CCOCC5)[nH]4)ccc32)[nH]1)C(C)(C)F (single isomer, unassigned) [Compound 169]	–	–	–	0.0034 nM	0.045 nM	0.075 nM	IC50 (HCV replicon 1A; replicon 1A): 0.0012 nM
COC(=O)NC(C(=O)N1CCC[C@H]1c1ncc(-c2ccc3c(c2)cc2n3C(c3ccc(C4CC4)s3)Oc3cc(-c4cnc([C@@H]5CCCN5C(=O)[C@@H](NC(=O)OC)C(C)C)[nH]4)cc(F)c3-2)[nH]1)C1CN(C(=O)OC)C1 (single isomer, unassigned) [Compound 228]	–	–	–	–	0.5 nM	0.47 nM	IC50 (HCV replicon 1B; replicon 1B): 0.0038 nM; IC50 (HCV replicon 1A; replicon 1A): 0.002 nM
COC(=O)N[C@H](C(=O)N1CCC[C@H]1c1ncc(-c2cc(F)c3c(c2)OC(c2ccc(C4CC4)s2)n2c-3c(C)c3cc(-c4cnc([C@@H]5CCCN5C(=O)[C@@H](NC(=O)OC)C(C)C)[nH]4)ccc32)[nH]1)C(C)C (single isomer, unassigned) [Compound 841]	–	0.0026 nM	–	–	–	–	IC50 (HCV replicon 1B; HCV replicon 1B): 0.0017 nM; IC50 (HCV replicon 1AY93H; [6]): 0.849 nM; IC50 (HCV replicon 2B; [7]): 0.523 nM
COC(=O)NC(C(=O)N1CCC[C@H]1c1ncc(-c2ccc3c(c2)cc2n3C(c3ccc(C4CC4)s3)Oc3cc(-c4cnc([C@@H]5CCCN5C(=O)[C@@H](NC(=O)OC)C(C)C)[nH]4)cc(F)c3-2)[nH]1)C(C)(C)F (single isomer, unassigned) [Compound 77]	–	–	–	–	0.24 nM	0.41 nM	IC50 (HCV replicon 1B; replicon 1B): 0.0029 nM; IC50 (HCV replicon 1A; replicon 1A): 0.0018 nM
COC(=O)N[C@H](C(=O)N1CCC[C@H]1c1ncc(-c2cc(F)c3c(c2)OC(c2ccc(C(C)C)s2)n2c-3cc3cc(-c4cnc([C@@H]5CCCN5C(=O)[C@@H](NC(=O)OC)C5CCOCC5)[nH]4)ccc32)[nH]1)C(C)C (single isomer, unassigned) [Compound 345]	–	–	–	–	0.0012 nM	0.0072 nM	IC50 (HCV replicon 1AQ30D): 0.0235 nM
COC(=O)N[C@H](C(=O)N1CCC[C@H]1c1ncc(-c2cc(F)c3c(c2)OC(c2csc(C4CC4)c2)n2c-3cc3cc(-c4cnc([C@@H]5CCCN5C(=O)[C@@H](NC(=O)OC)C(C)C)[nH]4)ccc32)[nH]1)C(C)C (single isomer, unassigned) [Compound 322]	–	–	–	–	0.0297 nM	–	IC50 (HCV replicon 1AQ30D): 0.82 nM; IC50 (HCV replicon 2B; [5]): 0.29 nM
COC(=O)N[C@H](C(=O)N1CCC[C@H]1c1ncc(-c2cc(F)c3c(c2)OC(c2ccc(C4(C)CC4)s2)n2c-3cc3cc(-c4cnc([C@@H]5CCCN5C(=O)[C@@H](NC(=O)OC)C(C)C)[nH]4)ccc32)[nH]1)C(C)C (single isomer, unassigned) [Compound 835]	–	0.0035 nM	–	–	–	–	IC50 (HCV replicon 1B; HCV replicon 1B): 0.0014 nM; IC50 (HCV replicon 1AY93H; [6]): 0.943 nM; IC50 (HCV replicon 2B; [7]): 1.31 nM

From US20160257697A1, “THIOPHENE-SUBSTITUTED TETRACYCLIC COMPOUNDS AND METHODS OFUSE THEREOF FOR THE TREATMENT OF VIRAL DISEASES” (priority 2013, published 2016)
